The source of these data is article PMC7020312 (CPT: Pharmacometrics & Systems Pharmacology, 2020).

The target of series [1] is T1, CYP3A4 (Homo sapiens, UniProt P08684). Conditions: cited from earlier work.
In a further series the test system is CYP2C8. Kind of series: Unbound intrinsic metabolic clearance assigned to CYP2C8. The note with it: human, human liver microsomes and recombinant enzymes. It counts as in vitro ADME. (In general: Liver microsomes are a subcellular fraction often used to study metabolism.)
Series [2] in a line: Caco-2 apical-to-basolateral apparent permeability. It counts as in vitro ADME. Conditions: human. (Passage across Caco-2 layers is used to estimate intestinal permeability.)
The test system of another series is CYP1A2. Kind of series: Unbound intrinsic metabolic clearance assigned to CYP1A2. It counts as in vitro ADME. The note with it: human, human liver microsomes and recombinant enzymes.
For series [3] the following is noted: cited from earlier work.
The conditions of series [4]: olanzapine PBPK input, cited from earlier work.
A further series has as its system FMO3. The experiment in a line: Unbound intrinsic metabolic clearance assigned to FMO3. It counts as in vitro ADME. Conditions: human, human liver microsomes and recombinant enzymes.
The target in series [5] is T1, CYP3A4. It counts as in vitro ADME.
For series [6] the following is noted: cited from earlier work. The source holds these as a separate data set.
For another series, the system named is UGT1A4. Kind of series: Unbound intrinsic metabolic clearance assigned to UGT1A4. It counts as in vitro ADME. Conditions: human, human liver microsomes and recombinant enzymes.
Series [7] can be described thus: Unbound intrinsic metabolic clearance. It counts as in vitro ADME. Conditions: human.
Series [8] is described as follows: Physicochemical properties used as PBPK inputs. The note with it: samidorphan, unpublished data provided by Alkermes.
Series [9] is described as follows: Renal clearance / renal excretion of unchanged drug. The note with it: human, in vivo.
The subject of a further series is κ‐opioid receptors. The note with it: in vitro; cited from earlier work.
A further series concerns the target CYP2D6 (Homo sapiens, UniProt P10635). The experiment in a line: CYP2D6 competitive inhibition. It counts as biochemical.
A further series deals with human δ‐opioid receptor. The note with it: in vitro; cited from earlier work.
The next series concerns human μ‐opioid receptor. The note with it: in vitro; cited from earlier work.
Series [10] is described as follows: Fraction unbound in microsomal incubation. It counts as in vitro ADME. Conditions: 0.5 mg/mL microsomal incubation; unpublished data provided by Alkermes.
The subject of a further series is opioid receptor. Conditions: cited from earlier work.
In another series the test system is δ‐opioid receptors. Conditions: in vitro; cited from earlier work.
In a further series the test system is human κ‐opioid receptor. The note with it: in vitro; cited from earlier work.
A further series relates to non-CYP3A4 enzymes. Kind of series: Unbound intrinsic metabolic clearance. It counts as in vitro ADME. The note with it: human.
Series [11] can be described thus: Blood-to-plasma partition ratio and fraction unbound in plasma. It counts as in vitro ADME.
Another series has as its system μ‐opioid receptors. Conditions: in vitro; cited from earlier work.
The mark [12] stands for this setting: ± itraconazole 200 mg q.d., observed, sublingual BUP/SAM 2/2.

Like-named read-outs stand apart in the source and are kept apart here.

T1 sequence (P08684 whole entry): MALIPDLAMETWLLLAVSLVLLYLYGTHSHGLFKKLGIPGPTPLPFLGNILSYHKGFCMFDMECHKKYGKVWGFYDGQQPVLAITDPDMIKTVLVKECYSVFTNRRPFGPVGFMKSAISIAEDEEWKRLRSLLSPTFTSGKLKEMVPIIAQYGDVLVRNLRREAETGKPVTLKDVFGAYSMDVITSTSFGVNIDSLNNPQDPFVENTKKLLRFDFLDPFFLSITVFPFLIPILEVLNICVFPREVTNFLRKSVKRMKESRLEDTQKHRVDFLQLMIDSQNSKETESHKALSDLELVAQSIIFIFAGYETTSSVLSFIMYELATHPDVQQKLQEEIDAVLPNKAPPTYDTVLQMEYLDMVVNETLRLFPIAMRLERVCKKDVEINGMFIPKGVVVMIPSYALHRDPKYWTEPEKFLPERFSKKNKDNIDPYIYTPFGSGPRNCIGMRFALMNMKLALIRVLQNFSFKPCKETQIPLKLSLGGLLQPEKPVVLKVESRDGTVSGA
Chain of CYP2D6 (P10635 whole entry): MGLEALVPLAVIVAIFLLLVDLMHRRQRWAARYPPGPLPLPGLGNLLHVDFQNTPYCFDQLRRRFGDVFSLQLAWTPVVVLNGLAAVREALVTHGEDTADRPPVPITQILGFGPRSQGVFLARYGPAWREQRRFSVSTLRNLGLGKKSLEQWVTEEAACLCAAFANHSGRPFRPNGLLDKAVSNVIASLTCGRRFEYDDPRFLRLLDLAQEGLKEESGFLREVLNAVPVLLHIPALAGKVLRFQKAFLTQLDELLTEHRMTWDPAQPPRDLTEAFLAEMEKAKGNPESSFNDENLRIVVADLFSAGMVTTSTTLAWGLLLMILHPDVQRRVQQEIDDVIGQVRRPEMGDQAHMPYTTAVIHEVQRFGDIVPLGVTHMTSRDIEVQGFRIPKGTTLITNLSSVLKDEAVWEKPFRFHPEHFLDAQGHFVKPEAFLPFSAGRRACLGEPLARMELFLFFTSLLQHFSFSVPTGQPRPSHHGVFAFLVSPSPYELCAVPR

In general, microsomal CLint refers to the rate of metabolic loss divided by the concentration. For orientation: Papp A→B means the apparent permeability from the apical to the basolateral side of a cell layer. The term log P denotes a log measure of how a compound divides between an organic and an aqueous phase. For the compound `Cc1cc2c(s1)Nc1ccccc1N=C2N1CCN(C)CC1` [Olanzapine, olanzapine], on CYP3A4 [1], the “contribution of CYP3A4 to the overall clearance” value was < 10%. The microsomal CLint was 4.98 µL/min/mg in the series with CYP2C8; 23.7 µL/min/mg in the series on CYP1A2; 4.28 µL/min/mg in the series on FMO3; 4.42 µL/min/mg on CYP3A4 [5] (human liver microsomes and recombinant enzymes); 20.6 µL/min/mg with UGT1A4; 57.9 µL/min/mg in series [7]. In [2] (Caco-2, pH 7.4), the Papp A→B was 17.4 ×10⁻⁶ cm/s. Besides, in series [3] (pharmacokinetics study (N = 49)), the “AUC lower in smokers than in nonsmokers” value is 15%. The “increase in clearance, smokers vs. nonsmokers” value in series [3] (population pharmacokinetic analysis (N = 523)) is 55%. Also, in [4] (ref Callaghan et al.21), the Compound type entry is recorded as “Monoprotic base”. For the same compound, in series [4] (ref El‐Ela et al.29), the “log P” value is on record as 2.89. The “administered dose excreted renally as unchanged drug” value in series [6] is recorded as 7%. Also, the “CLR (renal clearance)” value in series [6] (olanzapine, ref Kassahun et al.15) is 0.81 L/h.
In general, pKa refers to the pH at which an ionisable group is half protonated. As a reminder, the Ki is the dissociation constant of the complex between target and ligand, obtained from inhibition or displacement. In general, fraction unbound refers to free concentration divided by total concentration. Turning to `NC(=O)c1ccc2c(c1O)[C@]13CCN(CC4CC4)[C@H](C2)[C@]1(O)CCC(=O)C3` [Samidorphan, samidorphan], the pKa was 7.5 in series [8] (pKa1 (acid)) and 8.2 in series [8] (pKa2 (base)). Further, the Compound type entry in [8] is recorded as “Ampholyte”. In series [9], this compound had a CL renal of 183 mL/min. Also, in [2] (Caco-2, pH 6.5), the Papp A→B came to 18.8 ×10⁻⁶ cm/s. Besides, the “functional activity (in words)” value with κ‐opioid receptors is given as “partial agonist”; in the series with δ‐opioid receptors it was “partial agonist”; in the series on μ‐opioid receptors it was “antagonist”. For the same compound, in series [3] (setting [12]), the “AUC ratio (geometric mean)” value is given as 1.50. Also, the “Cmax ratio (geometric mean)” value in series [3] (setting [12]) is on record as 1.12. Also, the Ki at CYP2D6 stood at 41.5 µM. In addition, the “binding affinity (in words)” value in the series with human δ‐opioid receptor, in the series on human μ‐opioid receptor and in the series with human κ‐opioid receptor was “high affinity” each time. Besides, the “fumic at 0.5 mg/mL” value in series [10] turned out to be 0.86. The microsomal CLint turned out to be 5.93 µL/min/mg on CYP3A4 [5], 5.22 µL/min/mg in the series with non-CYP3A4 enzymes and 11.2 µL/min/mg in series [7]. Moreover, the “in vivo function (in words)” value in the series on opioid receptor is reported as “opioid receptor antagonist”. In series [11] (plasma), the fraction unbound is 0.69. Also, in series [11] (samidorphan, unpublished data provided by Alkermes), the “B:P (blood‐to‐plasma partition ratio)” value was 1.
